“And” between values parts separate entries of the source, which are not always exact repeats. Equal entries are not always repeated. Where two headings read alike, the source gives them in different places. Values belong to the compound of their own block, whether it stands above or below them.
Assays:
[1] = CMC, iodine method of Ross and Olivier; format: physicochemical; conditions: iodine spectrophotometric assay
Experimental: (§1) The CMC of HECAMEG was colorimetrically determined with the iodine method of Ross and Olivier and the Coomassie blue G method of Rosenthal and Koussaie and spectrofluorometrically with the technique of Vendittis et al. In the latter case, excitation was performed at 370 nm and emission recorded at 490 nm.
(§2) The CMC of the detergent was estimated by three distinct spectrophotometric methods of OG (n-octylα-D glucopyranoside) was used for comparison. The iodine spectrophotometric assay indicated a CMC of 17 mM while values of 14.5 and 15 mM were obtained with Coomassie blue G, and 19.5 mM was obtained by spectrofluorometry at 4° and 20° C. The second method was not reliable with OG, while the two other methods indicated for this surfactant, as expected, a CMC of 25 mM.

[2] = target: T1, spiralin, the main protein of the S. melliferum membrane (Spiroplasma melliferum, UniProt P21625)
T1 construct: Spiroplasma melliferum B88 was cultivated and membranes were purified as described; endogenous in cells; host or cells: Spiroplasma melliferum B88, purified membranes
Experimental: Since the membrane of melliferum has a complex protein composition, the protein extracted by HECAMEG was analyzed by SDS PAGE. Separation of polypeptides was performed in 100×100×4 mm gels in 40 mM Tris-20 mM Na acetate buffer (pH 7.4) containing 2 mM EDTA and 0.1% SDS. The upper gel contained 4.83% acrylamide and 0.17% bisacrylamide while the lower separating gel contained 7.72% acrylamide and 0.28% bisacrylamide. The samples contained 2% SDS and 0.12 M 2 mercaptoethanol and were heated at 60° C. for 5 min prior to electrophoresis. Bromphenol blue was used as the tracking dye. Protein bands were stained with Coomassie blue R-250 in an acetic acid/methanol/water mixture (1/4/5,v/v). […] Optimal selectivity was obtained with surfactant concentration in the 60 to 65 mM range.

bacteriorhodopsin = target: T2, bacteriorhodopsin (Halobacterium salinarum, UniProt P02945); experiment: Absorbance spectrum of bacteriorhodopsin; design: species or system H. halobium; conditions: native 558 nm
T2 construct: The untrated (native) purple membrane of H. halobium; endogenous in cells; host or cells: Halobacterium halobium R1, purified purple membrane
T2 sequence (P02945 14-262): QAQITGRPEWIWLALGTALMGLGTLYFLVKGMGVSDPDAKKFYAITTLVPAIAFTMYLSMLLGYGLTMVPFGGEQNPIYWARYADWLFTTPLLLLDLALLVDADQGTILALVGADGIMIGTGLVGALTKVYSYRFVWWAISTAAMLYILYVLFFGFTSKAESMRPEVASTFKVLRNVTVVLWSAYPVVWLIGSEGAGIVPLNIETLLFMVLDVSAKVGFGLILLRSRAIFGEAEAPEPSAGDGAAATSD
Experimental: Absorbance of dark-adapted bacteriorhodopsin was recorded between 350 and 700 nm. […] When the membrane was solubilized with 1% SDS, leading to the extensive denaturation of bacteriorhodopsin, the absorbance at 558 nm was lost to the benefit of a new maximum at 390 nm, corresponding to free retinal dissolved in SDS. These two spectra were thus representative, respectively, of the native and denatured forms of bacteriorhodopsin. Upon extraction with HECAMEG, the absorption spectrum of the protein was similar to that of the native state protein with, however, a slight blue shift in the absorption maximum (λmax=550 nm). Some absorption was also recorded at 390 nm, but it was much lower than that in SDS, even when HECAMEG was used at concentrations up to 0.1 M. Because of the scatering of light by membrane particles, the 390-nm peak could not be observed in untreated samples.

[3] = Detergent dialysis (Lipoprep apparatus); format: physicochemical; conditions: 30 mM in 50 mM Na phosphate pH 7.4, 5 kDa cutoff membranes, 25° C.
Experimental: Dialysis experiments with HECAMEG were performed with the Lipoprep apparatus using a three-compartment Teflon cell with two cellulose dialysis membranes (molecular mass cutoff 5 kDa). The central compartment was filled with 8 ml of 30 mM HECAMEG in 50 mM Na phosphate buffer, pH 7.4. The same buffer, but without detergent circulated through the two side compartment for 24 h at 25° C. Dialysis speed was estimated by measuring HECAMEG concentration within the central cell.
The dialyzability of HECAMEG was estimated by the use of the Lipoprep dialysis system under conditions corresponding to those used for the preparation of liposomes. […] Indeed, the concentration of HECAMEG in the central compartment of the cell dropped by 50% upon 3 h of dialysis and the surfactant was no longer detected after about 18 h.

[4] = target: T3, bacteriorhodopsin from the purple membrane of H. halobium (Halobacterium salinarum, UniProt P02945); experiment: Membrane protein extraction with detergents, purple membrane
T3 construct: The untrated (native) purple membrane of H. halobium; endogenous in cells; host or cells: Halobacterium halobium R1, purified purple membrane
T3 sequence (P02945 14-262): T2 sequence (P02945 14-262)
Source text: Spiroplasma melliferum B88 was cultivated and membranes were purified as described. The purple membrane of Halobium R1 was purified according to Oesterhelt and Stoeckenius (22). Pasteurella multocida was cultivated in liquid medium containing per liter 20 g of Tryptose (Difco), 1 g of glucose, 5 g of NaCl, and 2,5 g of yeast extract (Difco), pH 7.4. The cells were harvested by centrifugation and disrupted with a French press. Plasma membranes were isolated according the technique of Osborn and Munson.
In order to extract membrane proteins, 200 μl of a membrane suspension in 0.1 M Na phosphate buffer (pH 7.4) was mixed with 200 μl of detergent dissolved in water. After 90 min at room temperature, the mixture was centrifuged at 260,000 g for 15 min at 20° C. (Beckman TL-100 ultracentrifuge, TL A 100.1 rotor). The supernatant was recovered for further analysis, while the pellet was dispersed in 400 μl of 2% SDS in 50 mM Tris-HCl buffer (pH 8.0). After 60 min at room temperature, the mixture was centrifuged as above and the supernatant recovered for analysis.
It was possible to extract up to 75% of bacteriorhodopsin from the purple membrane and 40% of protein from the spiroplasmal membrane with 75 mM HECAMEG. This corresponds respectively to ratios of 9 and 26 ug of protein/μmol of detergent. The efficacy of the extraction was not improved by increasing the detergent concentration. […]

[5] = tested on: P. multocida succinate dehydrogenase; experiment: Enzyme assay, succinate dehydrogenase; format: biochemical, Pasteurella multocida; conditions: for Km: read-out: Km ± SD
Experimental: (§3) P. multocida succinate dehydrogenase was assayed as described by Osborn et al in […] Na phosphate buffer (pH 7.4) containing 10 mM KCN, Na succinate (concentration range: 0.25 to 25 mM), 30 ug of thiazolyl blue, and 10 μg of phenazine methosulfate per milliliter. The samples contained 25, 50, or 100 μg of plasma membrane protein per milliliter and the absorbance at 550 nm was recorded for 10 min at 25° C.P. multocida NADH oxidase was assayed in 50 mM Tris-HCl buffer (pH 8.0) containing 0.2 mM dithiothreitol and 0.12 mM NADH. The samples contained 50,75, or 100 μg of plasma membrane protein per milliliter and the absorbance at 340 nm was recorded as above. The activity of the soluble form of Escherichia coli β-lactamase was measured by using Nitrocefin as substrate and by monitoring the rate of increase in the absorbance at 488 nm for 3 min at 25° C. One milliliter of 20 mM Na phosphate buffer (pH 7.4) contained Nitrocefin (concentration range: 5 to 20 uM) and 0.76 ug (i.e., 2×10^-3 units) of β-lactamase.
(§4) The four enzyme activities were measured in the absence of surfactants and in the presence of 3 or 30 mM HECAMEG. Controls were also performed with 35 mM SDS. Km and V max were determined from Lineweaver-Burk plots, each point being the average of three estimations.

[6] = target: T4, Bovine milk lactoperoxidase (Bos taurus, UniProt P80025); experiment: Enzyme assay, lactoperoxidase (o-dianisidine substrate); format: biochemical
T4 construct: from tissue; host or cells: bovine milk
Experimental: Bovine milk lactoperoxidase was assayed according to George except that o-dianisidine was used as the substrate instead of gaiacol. One milliliter of 20 mM Na phosphate buffer (pH 7.4) contained […] (concentration range: 0.06 to 0.9 mM) 1 mM o-dianisidine, and 25×10^-3 μg (i.e., 1.15×10^-3 units) of lactoper oxidase. The absorbance at 435 nm was recorded as for β-lactamase.
as §4

spiralin = target: T5, spiralin (Spiroplasma melliferum, UniProt P21625); conditions: crossed immunoelectrophoresis, rabbit antibodies against S. melliferum membrane
T5 construct: Spiroplasma melliferum B88 was cultivated and membranes were purified as described; endogenous in cells; host or cells: Spiroplasma melliferum B88, purified membranes
Experimental: Antibodies directed against the S. melliferum membrane were prepared in rabbits as described. The hyperimmune sera were filtered through 0.45-μm-pore membranes and stored at -25° C. Crossed immunoelectrophoresis was performed according to the method of Laurell in 1% agarose gel in veronal buffer, pH 8.6 (I=0.03). After unprecipitaded proteins where eluted and gels were dried, immunoprecipitates were stained with Coomassie blue R-250.

[7] = CMC, spectrofluorometry (technique of Vendittis et al.); format: physicochemical; conditions: for CMC: spectrofluorometry at 4° and 20° C.
Experimental: as §1, §2

[8] = Stability of HECAMEG solutions; format: physicochemical; conditions: 4° C.
[9] = tested on: P. multocida NADH oxidase; experiment: Enzyme assay, NADH oxidase; format: biochemical, Pasteurella multocida; conditions: for Km: read-out: Km ± SD
Experimental: as §3, §4

[10] = tested on: Escherichia coli β-lactamase; experiment: Enzyme assay, β-lactamase (Nitrocefin substrate); format: biochemical; conditions: for Km: read-out: Km ± SD
Experimental: as §3, §4

[11] = CMC, Coomassie blue G method of Rosenthal and Koussaie; format: physicochemical
Experimental: as §1, §2

[12] = Solubility in water, usual buffers and organic solvents; format: physicochemical
[13] = stated for comparison; cited from earlier work

T1 sequence (P21625 24-242): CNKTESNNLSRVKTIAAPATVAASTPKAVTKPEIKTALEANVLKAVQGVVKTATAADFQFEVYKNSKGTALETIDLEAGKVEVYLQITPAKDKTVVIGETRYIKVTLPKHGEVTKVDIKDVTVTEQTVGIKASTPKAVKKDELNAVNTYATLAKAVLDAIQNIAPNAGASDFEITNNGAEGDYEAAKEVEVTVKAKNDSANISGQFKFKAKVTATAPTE
T5 sequence (P21625 24-242): as above

Compound: CCCCCCCNC(=O)OC[C@H]1O[C@H](OC)[C@H](O)[C@@H](O)[C@@H]1O [HECAMEG, 6-0 (N-Heptylcarbamoyl) methyl α-D-glucopyranoside]
CMC [1]: 17 mM
polypeptides extracted (including spiralin) of 28 detected in the membrane ([2]; 60 to 65 mM surfactant): 12
solubilization of the fibril protein ([2]; S. melliferum membrane): not able to solubilize the fibril protein
absorption maximum (λmax) of bacteriorhodopsin (bacteriorhodopsin; upon extraction with HECAMEG): 550 nm
dialysis time after which surfactant was no longer detected [3]: about 18 h
drop of concentration in the central compartment ([3]; upon 3 h of dialysis): 50%
ratio protein extracted per detergent ([4]; 75 mM HECAMEG, purple membrane): 9 ug of protein/μmol of detergent
membrane protein extraction below the CMC ([4]; concentrations below the CMC): inefficient
inhibition of enzyme by the surfactant [5]: not inhibited
Vmax ± SD ([5]; HECAMEG 0.1%, 3 mM): 163 ± 41 µmol/min
Km ([5]; HECAMEG 0.1%, 3 mM): 947 ± 52 µM
Vmax ± SD ([5]; HECAMEG 1%, 30 mM): 357 µmol/min and 357 ± 50 µmol/min
Km ([5]; HECAMEG 1%, 30 mM): 901 ± 65 µM
effect on Km and Vmax below the CMC ([5]; below the CMC): neither Km nor Vmax was significantly modified
change of Vmax ([6]; 30 mM surfactant): increased about threefold
Vmax ± SD ([6]; HECAMEG 0.1%, 3 mM): (609 ± 30) × 10^-3 μmol/min
Vmax ± SD ([6]; HECAMEG 1%, 30 mM): (1238 ± 4) × 10^-3 μmol/min
enzyme activity above the CMC ([6]; above the CMC): increased
effect on enzyme below the CMC ([6]; below the CMC): apparent activation
antigenicity of spiralin after solubilization (spiralin): remained highly antigenic
CMC [7]: 19.5 mM
critical micellar concentration (CMC) ([7]; summary value, method not named at the place): 19.5 mM and 6.5 g/l
stability of solutions [8]: stable for several weeks
inhibition of enzyme by the surfactant [9]: not inhibited
Vmax ± SD ([9]; HECAMEG 0.1%, 3 mM): 4.0 ± 0.5 µmol/min
Km ([9]; HECAMEG 0.1%, 3 mM): 12.5 ± 1.2 µM
Vmax ± SD ([9]; HECAMEG 1%, 30 mM): 10.3 ± 1.2 µmol/min and 10.3 µmol/min
Km ([9]; HECAMEG 1%, 30 mM): 3.3 ± 0.6 µM
change of affinity of the enzyme for its substrate ([9]; above the CMC (30 mM)): increased fourfold
effect on Km and Vmax below the CMC ([9]; below the CMC): neither Km nor Vmax was significantly modified
change of Vmax ([10]; 30 mM surfactant): decreased threefold
Vmax ± SD ([10]; HECAMEG 0.1%, 3 mM): 143 ± 16.5 µmol/min
Km ([10]; HECAMEG 0.1%, 3 mM): 62 ± 10 µM
Vmax ± SD ([10]; HECAMEG 1%, 30 mM): 30.5 ± 0.4 µmol/min
Km ([10]; HECAMEG 1%, 30 mM): 18.1 ± 0.6 µM
enzyme activity above the CMC ([10]; above the CMC): decreased
effect on enzyme below the CMC ([10]; below the CMC): apparent activation
CMC [11]: 14.5 mM and 15 mM
solubility in water ([12]; even at 0° C.): high solubility
solubility ([12]; usual buffers, in currant buffers, at 4° C., read-out: solubility): > 60 mg/mL
solubility ([12]; water, Tris-HCl and phosphate buffers, even at 0° C., read-out: solubility in water and usual buffers): ≥ 200000 µM
solubility in water and organic solvents ([12]; water, alcohols, methylene chloride, tetrahydrofuranne, DMSO): very soluble

Compound: CCCCCCCCCCCCOS(=O)(=O)[O-].[Na+] [SDS, sodium dodecyl sulfate, reference compound]
absorption maximum of bacteriorhodopsin preparation (bacteriorhodopsin; membrane solubilized with 1% SDS): 390 nm
enzyme activity upon treatment with SDS ([5]; 35 mM SDS): completely inhibited
enzyme activity with SDS ([6]; 35 mM SDS): fully inhibited
enzyme activity upon treatment with SDS ([9]; 35 mM SDS): completely inhibited
enzyme activity with SDS ([10]; 35 mM SDS): fully inhibited

CMC [1]: 25 mM
CMC [7]: 25 mM
Compound: CCCCCCCCO[C@H]1O[C@H](CO)[C@@H](O)[C@H](O)[C@H]1O [OG, n-octylα-D glucopyranoside, reference compound]
CMC of comparison surfactants [13]: 25 mM

Reference: patent US5223411A, “Nonionic surfactants having a carbamoyl group and process for treatment of a proteins containing medium using the same” (Centre National de la Recherche Scientifique (CNRS), priority 1990, dated 1993)
